Results reported in ChEMBL document CHEMBL1155129, “Hepatitis C NS5B polymerase inhibitors: 4,4-Dialkyl-1-hydroxy-3-oxo-3,4-dihydronaphthalene-3-yl benzothiadiazine derivatives” (Bioorg Med Chem Lett, 2008).

Assays:
Hepatitis C virus [1] = test: Antiviral activity against HCV 1b in presence of 5% fetal calf serum by replicon based assay; assay type: functional, organism-based, Hepacivirus hominis; settings: genotype 1b
[2] = Inhibition of HCV 1a NS5B polymerase; parameters: species or system Hepatitis C virus subtype 1a
Hepatitis C virus [3] = test: Inhibition of HCV 1b NS5B polymerase; parameters: species or system Hepatitis C virus subtype 1b
Hepatitis C virus [4] = test: Antiviral activity against HCV 1a in presence of 5% fetal calf serum by replicon based assay; assay type: functional, organism-based, Hepacivirus hominis; settings: subtype 1a
[5] = Drug level in rat liver at 5 mg/kg, po after 1 hr; assay type: ADME, organism-based; parameters: dose 5 mg/kg, route oral; settings: read-out: Activity
[6] = Drug level in rat liver at 5 mg/kg, po after 12 hrs; assay type: ADME, organism-based; parameters: dose 5 mg/kg, route oral; settings: read-out: Activity
[7] = Drug level in rat liver at 5 mg/kg, po after 24 hrs; assay type: ADME, organism-based; parameters: dose 5 mg/kg, route oral; settings: read-out: Activity
[8] = Ratio of drug level in liver to plasma in rat at 5 mg/kg, po after 6 hrs; assay type: ADME, organism-based; parameters: dose 5 mg/kg, route oral; settings: other tissue
[9] = Half life in rat at 5 mg/kg, iv; assay type: ADME, organism-based; parameters: dose 5 mg/kg, route intravenous; settings: in vivo
[10] = Drug level in rat liver at 5 mg/kg, po after 6 hrs; assay type: ADME, organism-based; parameters: dose 5 mg/kg, route oral; settings: read-out: Activity
[11] = Tmax in rat at 5 mg/kg, po; assay type: ADME, organism-based; parameters: dose 5 mg/kg, route oral; settings: in vivo
[12] = Volume of distribution at terminal phase in rat at 5 mg/kg, iv; assay type: ADME, organism-based; parameters: dose 5 mg/kg, route intravenous; settings: in vivo, read-out: Vbeta
[13] = Volume of distribution at steady state in rat at 5 mg/kg, iv; assay type: ADME, organism-based; parameters: dose 5 mg/kg, route intravenous; settings: in vivo, read-out: Vdss
[14] = AUC (0 to infinity) in rat at 5 mg/kg, po; assay type: ADME, organism-based; parameters: time infinity, dose 5 mg/kg, route oral; settings: plasma
[15] = AUC (0 to infinity) in rat at 5 mg/kg, iv; assay type: ADME, organism-based; parameters: time infinity, dose 5 mg/kg, route intravenous; settings: plasma
[16] = Ratio of drug level in liver to plasma in rat at 5 mg/kg, po after 12 hrs; assay type: ADME, organism-based; parameters: dose 5 mg/kg, route oral; settings: other tissue
[17] = Drug level in rat plasma at 5 mg/kg, po after 1 hr; assay type: ADME, organism-based; parameters: dose 5 mg/kg, route oral; settings: read-out: Activity
[18] = Cmax in rat plasma at 5 mg/kg, po; assay type: ADME, organism-based; parameters: dose 5 mg/kg, route oral
[19] = Drug level in rat plasma at 5 mg/kg, po after 12 hrs; assay type: ADME, organism-based; parameters: dose 5 mg/kg, route oral; settings: read-out: Activity
[20] = Oral bioavailability in rat at 5 mg/kg; assay type: ADME, organism-based; settings: in vivo
[21] = Half life in rat at 5 mg/kg, po; assay type: ADME, organism-based; parameters: dose 5 mg/kg, route oral; settings: in vivo
[22] = Ratio of drug level in liver to plasma in rat at 5 mg/kg, po after 1 hr; assay type: ADME, organism-based; parameters: dose 5 mg/kg, route oral; settings: other tissue
[23] = Plasma clearance in rat at 5 mg/kg, iv; assay type: ADME, organism-based; parameters: dose 5 mg/kg, route intravenous
[24] = Drug level in rat plasma at 5 mg/kg, po after 6 hrs; assay type: ADME, organism-based; parameters: dose 5 mg/kg, route oral; settings: read-out: Activity

| EC50 (Hepatitis C virus [1]) | IC50 [2] | IC50 (Hepatitis C virus [3]) | EC50 (Hepatitis C virus [4]) | Structure (SMILES) | further results |
| --- | --- | --- | --- | --- | --- |
| 100 nM | 280 nM | 480 nM | – | O=c1c(C2=NS(=O)(=O)c3ccccc3N2)c(O)c2ccccc2n1NC1CCC1 | – |
| 810 nM | 240 nM | – | > 10000 nM | CCCC1(CCC)C(=O)C(C2=NS(=O)(=O)c3cc(OCC(N)=O)ccc3N2)=C(O)c2ccccc21 | – |
| – | 990 nM | 2270 nM | – | CCCCC1(CCCC)C(=O)C(C2=NS(=O)(=O)c3ccccc3N2)=C(O)c2ccccc21 | – |
| 290 nM | 260 nM | 330 nM | 9640 nM | CCCCC1(CCCC)C(=O)C(C2=NS(=O)(=O)c3cc(OCC(N)=O)ccc3N2)=C(O)c2ccccc21 | – |
| – | 2200 nM | 6260 nM | – | CC1(C)C(=O)C(C2=NS(=O)(=O)c3ccccc3N2)=C(O)c2ccccc21 | – |
| – | 820 nM | – | – | CC(C)CCC1(CCC(C)C)C(=O)C(C2=NS(=O)(=O)c3ccccc3N2)=C(O)c2ccccc21 | – |

The next lines start with the compound.

| Structure (SMILES) | EC50 (Hepatitis C virus [1]) | IC50 [2] | IC50 (Hepatitis C virus [3]) | EC50 (Hepatitis C virus [4]) | further results |
| --- | --- | --- | --- | --- | --- |
| CC(C)CCn1c(=O)c(C2=NS(=O)(=O)c3ccccc3N2)c(O)c2ccccc21 | 250 nM | 540 nM | – | – | – |
| CC1(C)C(=O)C(C2=NS(=O)(=O)c3cc(NS(C)(=O)=O)ccc3N2)=C(O)c2ccccc21 | – | 930 nM | 6260 nM | – | – |
| CCCC1(CCC)C(=O)C(C2=NS(=O)(=O)c3cc(NS(C)(=O)=O)ccc3N2)=C(O)c2ccccc21 | 22 nM | 99 nM | 130 nM | – | – |
| CC(C)CCC1(CCC(C)C)C(=O)C(C2=NS(=O)(=O)c3cc(NS(C)(=O)=O)ccc3N2)=C(O)c2ccccc21 | – | 68 nM | 390 nM | – | – |
| CCCC1(CCC)C(=O)C(C2=NS(=O)(=O)c3ccccc3N2)=C(O)c2ccccc21 | – | 2200 nM | – | – | – |
| CCCCC1(CCCC)C(=O)C(C2=NS(=O)(=O)c3cc(NS(C)(=O)=O)ccc3N2)=C(O)c2ccccc21 | 48 nM | 10 nM | 73 nM | 280 nM | concentration at 1 h [5]: 14200 ng/g; concentration at 12 h [6]: 4600 ng/g; concentration at 24 h [7]: 150 ng/g; Ratio [8]: 48.2 mL/g; half-life [9]: 4.3 h; concentration at 6 h [10]: 20800 ng/g; Tmax [11]: 3 h; Vd [12]: 6.11 L/kg; Vd [13]: 1.87 L/kg; AUC(0-inf) [14]: 6400 ng·h/mL; AUC(0-inf) [15]: 7300 ng·h/mL; Ratio [16]: 17.3 mL/g; concentration at 1 h [17]: 450 ng/mL; Cmax [18]: 580 ng/mL; concentration at 12 h [19]: 250 ng/mL; bioavailability [20]: 94.3%; half-life [21]: 4.3 h; Ratio [22]: 34.3 mL/g; clearance [23]: 11.7 mL/min/kg; concentration at 6 h [24]: 410 ng/mL |
| CC(C)CCC1(CCC(C)C)C(=O)C(C2=NS(=O)(=O)c3cc(OCC(N)=O)ccc3N2)=C(O)c2ccccc21 | > 3000 nM | 320 nM | – | 10100 nM | – |
